Article PMC4335020, “Single Oral Dose Pharmacokinetics of Decursin and Decursinol Angelate in Healthy Adult Men and Women” (PLoS ONE, 2015)
Read-outs that look alike come from different tables or passages of the source.

Assay: Single oral dose human plasma pharmacokinetics of D, DA and DOH after Cogni.Q
Type: in vivo
Conditions: for AUC(0-t) / Cmax / half-life / Tmax: human, plasma
Description: Ten healthy male and 10 female subjects were recruited by public announcement in Amarillo, TX, from January 2013 to April 2013 (see Fig. 1 CONSORT diagram). The sample size for each gender was chosen without power calculation due to the lack of prior knowledge of PK parameter variance in humans. After receiving informed consent verbally and in writing, the health status of each candidate was confirmed by health questionnaire, plasma biochemistry (hepatic and renal functions), complete blood cell count (CBC), and a physical examination by a participating academic physician. Subjects with diabetes, or pregnant, perinatal and breastfeeding women were excluded. For the 48 hours preceding study visit until the final blood draw, all subjects were instructed to avoid taking any prescription or nonprescription drugs, vitamins, and herbal/dietary supplements. Each subject was compensated for participating in the study per TTUHSC IRB approved rate.
Eligible subjects arrived at our clinical facility at 0700 (7:00 am) on the test day after a fast beginning at 2200 (10:00 pm) the previous night. After a brief review of vital signs, the nurse placed an intravenous (IV) line with saline drip in one arm of each subject. A baseline pre-dose (hour 0) blood sample was drawn through the IV line; after that subjects swallowed four Cogni.Q vegicaps with 240 mL of water at hour 0 under direct supervision. Subjects stayed at the clinical facility in their room for the next 12 hours, returning at 24 and 48 hours. Blood was drawn at baseline (hour 0) and at 0.5, 1, 2, 3, 4, 6, 8, 12, 24 and 48 hours after dosing into Vacutainer Blood Collection Tube (Becton-Dickinson, Franklin Lakes, NJ. Product Number: 367874, Sodium heparin was used as anti-coagulant). Water was allowed as desired except for within the first hour after Cogni.Q consumption. All subjects received standardized meals at post-dose hours 4.5 and 9.5 but no food was allowed for at least the first 4 hours post-dose.
Plasma was prepared by centrifuging the heparinized blood at 1000 g for 15 minutes at room temperature. Urine samples (40mL) were collected within time spans of 0–4, 4–8, 8–12 and 12–24 hours (total volume of urine was recorded). All plasma and urine samples were put on dry ice immediately and then stored at -80°C freezer until analysis.
Plasma samples were extracted with a validated solid supported liquid extraction (SLE) method facilitated with a positive pressure manifold (Biotage, Charlotte, NC). Briefly, 100 μL of plasma sample was spiked with 5 μL of 10 ng/μL prednisolone (IS), diluted with 200 μL of LC-MS grade water, mixed and loaded onto ISOLUTE SLE+ 400 μL Array Well cartridges (Biotage, Charlotte, NC). A pulse of minimum positive pressure was applied to facilitate the samples absorption into the cartridges. After the samples were allowed to absorb for 5 min, the compounds were eluted with 2×500 μL tert-butyl methyl ether. The eluent was dried in a Speedvac and the resulting residue was reconstituted in 50 μL of methanol for UHPLC-MS/MS analysis.
Eight-point calibration curves were constructed for D, DA and DOH, at concentrations of 0.1, 0.5, 1, 5, 10, 20, 50 and 100 μg/L for D and DA, and at concentrations of 1, 5, 10, 50, 100, 200, 500 and 1000 μg/L for DOH, respectively. The linear range was 0.1–100 μg/L (0.3–300 nmol/L), 0.1–100 μg/L (0.3–300 nmol/L) and 1–1000 μg/L (4–4000 nmol/L) for D, DA and DOH, respectively. The inter- and intra-assay CV were lower than 6.5% and the accuracy was between 90–105%. Calibration curve was run for each batch of samples analyzed. The mean calibration curve correlation coefficient (r) for D, DA and DOH was 0.999, 0.999 and 0.998, respectively (data from 7–10 calibration curves). In addition, 70% of the plasma samples were extracted and analyzed twice, the data from two replicate analyses were nearly identical and combined for final data analyses and presentation. […]

## CC(C)=CC(=O)O[C@H]1Cc2cc3ccc(=O)oc3cc2OC1(C)C [D, decursin]
oral, 4 Cogni.Q vegicaps, subject S10 (185 lb), read-out: AUC0-48h
  AUC(0-t): 46.6 nmol·h/L
oral, 4 Cogni.Q vegicaps, subject S10 (185 lb), read-out: Cmax
  Cmax: 5.7 nM
oral, 4 Cogni.Q vegicaps, subject S10 (185 lb), read-out: Terminal t1/2, h (converted)
  half-life: 13.4 h
oral, 4 Cogni.Q vegicaps, subject S10 (185 lb), read-out: Tmax
  Tmax: 0.5 h
oral, 4 Cogni.Q vegicaps, subject S11 (178 lb), read-out: AUC0-48h
  AUC(0-t): 14.7 nmol·h/L
oral, 4 Cogni.Q vegicaps, subject S11 (178 lb), read-out: Cmax
  Cmax: 2.5 nM
oral, 4 Cogni.Q vegicaps, subject S11 (178 lb), read-out: Terminal t1/2, h (converted)
  half-life: 20.2 h
oral, 4 Cogni.Q vegicaps, subject S11 (178 lb), read-out: Tmax
  Tmax: 1 h
oral, 4 Cogni.Q vegicaps, subject S12 (169 lb), read-out: AUC0-48h
  AUC(0-t): 24.8 nmol·h/L
oral, 4 Cogni.Q vegicaps, subject S12 (169 lb), read-out: Cmax
  Cmax: 1.3 nM
oral, 4 Cogni.Q vegicaps, subject S12 (169 lb), read-out: Terminal t1/2, h (converted)
  half-life: 15.7 h
oral, 4 Cogni.Q vegicaps, subject S12 (169 lb), read-out: Tmax
  Tmax: 2 h
oral, 4 Cogni.Q vegicaps, subject S13 (192 lb), read-out: AUC0-48h
  AUC(0-t): 13.5 nmol·h/L
oral, 4 Cogni.Q vegicaps, subject S13 (192 lb), read-out: Cmax
  Cmax: 1.3 nM
oral, 4 Cogni.Q vegicaps, subject S13 (192 lb), read-out: Terminal t1/2, h (converted)
  half-life: 25.8 h
oral, 4 Cogni.Q vegicaps, subject S13 (192 lb), read-out: Tmax
  Tmax: 0.5 h
oral, 4 Cogni.Q vegicaps, subject S14 (200 lb), read-out: AUC0-48h
  AUC(0-t): 21.5 nmol·h/L
oral, 4 Cogni.Q vegicaps, subject S14 (200 lb), read-out: Cmax
  Cmax: 8.6 nM
oral, 4 Cogni.Q vegicaps, subject S14 (200 lb), read-out: Terminal t1/2, h (converted)
  half-life: 4.5 h
oral, 4 Cogni.Q vegicaps, subject S14 (200 lb), read-out: Tmax
  Tmax: 1 h
oral, 4 Cogni.Q vegicaps, subject S15 (177 lb), read-out: AUC0-48h
  AUC(0-t): 23.8 nmol·h/L
oral, 4 Cogni.Q vegicaps, subject S15 (177 lb), read-out: Cmax
  Cmax: 16.8 nM
oral, 4 Cogni.Q vegicaps, subject S15 (177 lb), read-out: Terminal t1/2, h (converted)
  half-life: 26.5 h
oral, 4 Cogni.Q vegicaps, subject S15 (177 lb), read-out: Tmax
  Tmax: 1 h
oral, 4 Cogni.Q vegicaps, subject S16 (175 lb), read-out: Tmax
  Tmax: 3 h
oral, 4 Cogni.Q vegicaps, subject S17 (147 lb), read-out: AUC0-48h
  AUC(0-t): 53.9 nmol·h/L
oral, 4 Cogni.Q vegicaps, subject S17 (147 lb), read-out: Cmax
  Cmax: 9.8 nM
oral, 4 Cogni.Q vegicaps, subject S17 (147 lb), read-out: Terminal t1/2, h (converted)
  half-life: 22.7 h
oral, 4 Cogni.Q vegicaps, subject S17 (147 lb), read-out: Tmax
  Tmax: 2 h
oral, 4 Cogni.Q vegicaps, subject S18 (180 lb), outlier, excluded from means, read-out: Terminal t1/2, h (converted)
  half-life: 138 h
oral, 4 Cogni.Q vegicaps, subject S18 (180 lb), read-out: AUC0-48h
  AUC(0-t): 25.8 nmol·h/L
oral, 4 Cogni.Q vegicaps, subject S18 (180 lb), read-out: Cmax
  Cmax: 1.7 nM
oral, 4 Cogni.Q vegicaps, subject S18 (180 lb), read-out: Tmax
  Tmax: 4 h
oral, 4 Cogni.Q vegicaps, subject S19 (130 lb), read-out: AUC0-48h
  AUC(0-t): 35.7 nmol·h/L
oral, 4 Cogni.Q vegicaps, subject S19 (130 lb), read-out: Cmax
  Cmax: 1.7 nM
oral, 4 Cogni.Q vegicaps, subject S19 (130 lb), read-out: Terminal t1/2, h (converted)
  half-life: 8.5 h
oral, 4 Cogni.Q vegicaps, subject S19 (130 lb), read-out: Tmax
  Tmax: 3 h
oral, subject S16 (175 lb), outlier, excluded from means, read-out: Terminal t1/2, h (converted)
  half-life: 9.4 h
oral, subject S16 (175 lb), read-out: AUC0-48h
  AUC(0-t): 22.2 nmol·h/L
oral, subject S16 (175 lb), read-out: Cmax
  Cmax: 2.8 nM
oral, subject S20 (200 lb), read-out: AUC0-48h
  AUC(0-t): 19.1 nmol·h/L
oral, subject S20 (200 lb), read-out: Cmax
  Cmax: 1.3 nM
oral, subject S20 (200 lb), read-out: Terminal t1/2, h (converted)
  half-life: 18.4 h
oral, subject S20 (200 lb), read-out: Tmax
  Tmax: 2 h
humans, from plasma AUC0–48h values
  conversion of D/DA to DOH: > 98%
male, oral, 4 Cogni.Q vegicaps, Men n=10 (S1 Table), read-out: AUC0-48h, Mean
  AUC(0-t): 28.5 nmol·h/L
male, oral, 4 Cogni.Q vegicaps, Men n=10 (S1 Table), read-out: Cmax, nM, Mean
  Cmax: 5.22 nM
male, oral, 4 Cogni.Q vegicaps, Men n=10 (S1 Table), read-out: Tmax, h, Mean
  Tmax: 1.7 h
male, oral, Men, outliers excluded (S1 Table), read-out: Terminal t1/2, h, Mean (converted)
  half-life: 17.7 h
male, po, Men N = 10, single oral dose Cogni.Q, read-out: AUC0–48h, h.nmol/L Mean (SD)
  AUC(0-t): 28.5 nmol·h/L
male, po, Men N = 10, single oral dose Cogni.Q, read-out: Cmax, nmol/L, Mean (SD)
  Cmax: 5.2 nM
male, po, Men N = 10, single oral dose Cogni.Q, read-out: Tmax, h, Mean (SD)
  Tmax: 1.7 h
male, po, Men, outlier subjects excluded, single oral dose Cogni.Q, read-out: T1/2, h, terminal Mean (SD) (converted)
  half-life: 17.7 h
